15 compounds from patent publication US12371428B2 (Exelixis, Inc., priority 2019, dated 2025) can be followed below.

In assay [1] the target is Human MER (residues 528-999) (Homo sapiens (Human), UniProt Q12866). The experiment in a line: Human Mer kinase assay, HTRF KinEase (Example C-2). It counts as biochemical. The settings on record: protocol of Example C-2. In a few lines: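 HTRF KinEase TK assay with MER 528-999 (1 ng/well) in enzymatic buffer plus 5 mM MgCl2 and 1 mM DTT, biotinylated peptide substrate and ATP at Km (40 μM), 3% DMSO final, 60 min at room temperature. Stopped with EDTA detection mix (SA-XL665, TK antibody-Eu3+), read at 665/620 nm after 60 min; IC50 from 10-point 4-parameter fit, normalized to DMSO and 1 μM reference.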
Background: Time-resolved FRET reads energy transfer from a long-lived donor to a nearby acceptor.

Assay [2] has as its target Human KDR (residues 790-1356) (Homo sapiens (Human), UniProt P35968). As to the kind of experiment: Human KDR kinase assay, HTRF KinEase (Example B-2). It counts as biochemical. The settings on record: protocol of Example B-2. The method, boiled down:
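Human KDR residues 790-1356 (0.1 ng/well) in buffer with 5 mM MgCl2, 1 mM MnCl2, 1 mM DTT, biotinylated peptide substrate, ATP at Km (4.0 μM), 3% DMSO, 10 compound concentrations; 40 min, room temperature. EDTA stop, streptavidin-XL665/Eu-TK antibody HTRF read 665/620 nm; 4-parameter IC50.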

The target in assay [3] is Human MET (residues 956-1390) (Homo sapiens (Human), UniProt P08581). As to the kind of experiment: Human Met kinase assay, HTRF KinEase (Example D-2). It counts as biochemical. The settings on record: protocol of Example D-2; read-out: c-Met IC50. The method, boiled down:
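HTRF KinEase assay on MET residues 956-1390 (0.1 ng/well) in buffer with 5 mM MgCl2, 1 mM DTT and 1 mM MnCl2, with biotinylated peptide substrate, ATP at Km, 10 compound concentrations and 3% DMSO final, run 40 min at room temperature. The […] signal was normalized to DMSO and to 1 μM reference compound, and IC50 came from a 4-parameter logistic fit.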

Assay [4] concerns the target Mer (phospho-Mer, MERTK-transfected 293A cells) (Homo sapiens (Human), UniProt Q12866). The experiment in a line: Mer autophosphorylation ELISA in transient transfected 293A cells (Example H). The settings on record: cellular activity; Mer autophosphorylation ELISA in transient transfected 293A cells. The format is cell-based. In a few lines:
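Human MERTK transiently transfected into 293A cells; compounds as 8-point dose curve in serum-free medium (0.3% DMSO final), 1 h. Lysates assayed by phospho-Mer sandwich ELISA against phospho-Mer standard; DMSO = 100%, reference inhibitor = 0% activity; IC50 from 4-parameter logistic fit.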
(In general: ELISA stands for enzyme-linked immunosorbent assay.)

Each structure is given as a SMILES string. Counter-ions that a name gives are not always drawn. Where only a bound is given, the exact number is not on record here.

Sequence of Human MER (residues 528-999) (Q12866 528-999): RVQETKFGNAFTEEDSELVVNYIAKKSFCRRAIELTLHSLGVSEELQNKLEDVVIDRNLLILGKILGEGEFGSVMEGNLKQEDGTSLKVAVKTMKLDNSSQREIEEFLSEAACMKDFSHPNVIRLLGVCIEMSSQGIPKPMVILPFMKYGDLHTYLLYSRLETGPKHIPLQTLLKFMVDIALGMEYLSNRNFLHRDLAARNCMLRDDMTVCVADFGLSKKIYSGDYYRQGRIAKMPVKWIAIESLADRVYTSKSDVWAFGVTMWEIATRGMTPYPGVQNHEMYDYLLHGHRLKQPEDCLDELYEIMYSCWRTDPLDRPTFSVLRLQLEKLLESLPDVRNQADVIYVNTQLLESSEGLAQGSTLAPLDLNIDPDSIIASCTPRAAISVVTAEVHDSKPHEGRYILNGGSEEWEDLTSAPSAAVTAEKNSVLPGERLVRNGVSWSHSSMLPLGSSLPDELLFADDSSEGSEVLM
Sequence of Human MET (residues 956-1390) (P08581 956-1390): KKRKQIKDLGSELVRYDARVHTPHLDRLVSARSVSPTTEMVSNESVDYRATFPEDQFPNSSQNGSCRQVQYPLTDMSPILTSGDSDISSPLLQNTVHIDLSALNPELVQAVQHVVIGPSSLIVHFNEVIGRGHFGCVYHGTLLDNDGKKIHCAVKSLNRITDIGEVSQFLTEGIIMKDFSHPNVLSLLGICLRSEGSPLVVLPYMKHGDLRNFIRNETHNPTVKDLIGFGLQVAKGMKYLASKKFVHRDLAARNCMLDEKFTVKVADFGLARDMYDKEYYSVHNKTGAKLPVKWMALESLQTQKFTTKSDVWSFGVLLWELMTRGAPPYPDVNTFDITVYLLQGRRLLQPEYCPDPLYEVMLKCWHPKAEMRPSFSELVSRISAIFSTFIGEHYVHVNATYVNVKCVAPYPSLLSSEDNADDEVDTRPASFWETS
Sequence of Human KDR (residues 790-1356) (P35968 790-1356): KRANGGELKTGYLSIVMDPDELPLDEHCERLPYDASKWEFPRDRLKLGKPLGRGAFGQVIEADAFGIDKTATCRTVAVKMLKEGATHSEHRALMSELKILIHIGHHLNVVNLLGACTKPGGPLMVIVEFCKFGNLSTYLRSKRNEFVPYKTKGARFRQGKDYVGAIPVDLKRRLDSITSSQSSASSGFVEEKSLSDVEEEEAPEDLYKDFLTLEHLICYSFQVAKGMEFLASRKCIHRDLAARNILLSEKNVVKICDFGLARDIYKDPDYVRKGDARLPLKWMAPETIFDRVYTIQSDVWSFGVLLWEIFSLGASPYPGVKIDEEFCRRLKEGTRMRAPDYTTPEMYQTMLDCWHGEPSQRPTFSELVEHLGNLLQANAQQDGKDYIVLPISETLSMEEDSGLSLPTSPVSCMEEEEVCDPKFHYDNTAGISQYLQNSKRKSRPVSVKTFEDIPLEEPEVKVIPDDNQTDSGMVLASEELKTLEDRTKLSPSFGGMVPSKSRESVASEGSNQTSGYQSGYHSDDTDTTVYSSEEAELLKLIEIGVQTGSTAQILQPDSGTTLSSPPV
Sequence of Mer (phospho-Mer, MERTK-transfected 293A cells) (Q12866 21-999): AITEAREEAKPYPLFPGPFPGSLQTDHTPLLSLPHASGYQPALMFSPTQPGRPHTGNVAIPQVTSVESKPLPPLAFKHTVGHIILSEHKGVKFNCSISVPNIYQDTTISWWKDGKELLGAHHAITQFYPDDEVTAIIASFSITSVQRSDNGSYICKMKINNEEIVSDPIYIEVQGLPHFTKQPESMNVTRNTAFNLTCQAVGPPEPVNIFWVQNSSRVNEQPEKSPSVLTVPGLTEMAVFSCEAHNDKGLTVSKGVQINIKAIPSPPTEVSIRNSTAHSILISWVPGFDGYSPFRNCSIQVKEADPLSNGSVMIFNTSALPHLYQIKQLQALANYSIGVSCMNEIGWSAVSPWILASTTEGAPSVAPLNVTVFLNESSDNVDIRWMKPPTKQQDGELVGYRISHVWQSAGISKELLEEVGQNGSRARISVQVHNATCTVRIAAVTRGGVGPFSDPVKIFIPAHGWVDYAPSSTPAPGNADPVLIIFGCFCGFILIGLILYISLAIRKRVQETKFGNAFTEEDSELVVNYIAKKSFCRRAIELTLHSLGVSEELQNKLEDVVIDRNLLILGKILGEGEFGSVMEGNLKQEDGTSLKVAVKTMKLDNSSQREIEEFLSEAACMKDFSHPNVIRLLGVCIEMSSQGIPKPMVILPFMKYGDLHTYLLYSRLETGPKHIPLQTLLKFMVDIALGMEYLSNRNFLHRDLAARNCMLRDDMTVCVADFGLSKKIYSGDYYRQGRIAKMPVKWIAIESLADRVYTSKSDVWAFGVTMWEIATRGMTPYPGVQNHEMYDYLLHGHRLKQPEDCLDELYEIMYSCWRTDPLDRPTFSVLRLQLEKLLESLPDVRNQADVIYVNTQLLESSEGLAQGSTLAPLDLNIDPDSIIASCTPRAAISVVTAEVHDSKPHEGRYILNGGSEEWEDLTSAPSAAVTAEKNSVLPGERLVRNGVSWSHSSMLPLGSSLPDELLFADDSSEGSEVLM

For `COc1cnc2c(Oc3ccc(NC(=O)c4cn(C)c(C#N)c(-c5ccc(F)cc5)c4=O)cc3F)ccnc2c1` [Compound 586, 6-Cyano-N-[3-fluoro-4-[(7-methoxy-1,5-naphthyridin-4-yl)oxy]phenyl]-5-(4-fluorophenyl)-1-methyl-4-oxopyridine-3-carboxamide], the IC50 in assay [1] was below 0.1 µM; in assay [2], above 0.3 µM; in assay [3], below 0.1 µM; in assay [4], below 0.1 µM.
On to `COc1cnc2c(Oc3ccc(NC(=O)c4cn(C)c(OC)c(-c5ccc(F)cc5)c4=O)cc3F)ccnc2c1` [Compound 587, N-[3-Fluoro-4-[(7-methoxy-1,5-naphthyridin-4-yl)oxy]phenyl]-5-(4-fluorophenyl)-6-methoxy-1-methyl-4-oxopyridine-3-carboxamide], for which the IC50 in assay [1] was below 0.1 µM; in assay [2], above 0.3 µM; in assay [3] it was below 0.1 µM; in assay [4], below 0.1 µM.
On to `CCc1nc2c(Oc3ccc(NC(=O)c4cn(C(C)C)c(C)c(-c5ccc(F)cc5)c4=O)cc3F)ccnc2cc1OC` [Compound 588, N-[4-[(6-Ethyl-7-methoxy-1,5-naphthyridin-4-yl)oxy]-3-fluorophenyl]-5-(4-fluorophenyl)-6-methyl-4-oxo-1-propan-2-ylpyridine-3-carboxamide], for which the IC50 in assay [1] is below 0.1 µM; in assay [2], above 0.3 µM; in assay [3], below 0.1 µM; in assay [4] it was below 0.1 µM.
With `CCc1nc2c(Oc3ccc(NC(=O)c4cnc(C)c(-c5ccc(F)cc5)c4O)cc3F)ccnc2cc1OC` [Compound 589, N-[4-[(6-Ethyl-7-methoxy-1,5-naphthyridin-4-yl)oxy]-3-fluorophenyl]-5-(4-fluorophenyl)-4-hydroxy-6-methylpyridine-3-carboxamide], the IC50 in assay [1], in assay [2], in assay [3] and in assay [4] was below 0.1 µM in each case.
As to `Cc1cc(F)ccc1-c1c(C)ncc(C(=O)Nc2ccc(Oc3ccnc4cc(C(C)C)cnc34)c(F)c2)c1O` [Compound 593, 5-(4-Fluoro-2-methylphenyl)-N-[3-fluoro-4-[(7-propan-2-yl-1,5-naphthyridin-4-yl)oxy]phenyl]-4-hydroxy-6-methylpyridine-3-carboxamide], the IC50 in assay [1] is 0.1 to 0.3 µM; in assay [2], above 0.3 µM; in assay [3], 0.1 to 0.3 µM; in assay [4], below 0.1 µM.
In the case of `Cc1ncc(C(=O)Nc2ccc(Oc3ccnc4cc(C(C)C)cnc34)cc2)c(O)c1-c1ccc(F)cc1` [Compound 594, 5-(4-Fluorophenyl)-4-hydroxy-6-methyl-N-[4-[(7-propan-2-yl-1,5-naphthyridin-4-yl)oxy]phenyl]pyridine-3-carboxamide], the IC50 in assay [1] is below 0.1 µM; in assay [2], above 0.3 µM; in assay [3], below 0.1 µM; in assay [4], below 0.1 µM.
In the case of `Cc1nc(C)c(-c2ccc(F)cc2)c(O)c1C(=O)Nc1ccc(Oc2ccnc3cc(C(C)C)cnc23)c(F)c1` [Compound 595, 5-(4-Fluorophenyl)-N-[3-fluoro-4-[(7-propan-2-yl-1,5-naphthyridin-4-yl)oxy]phenyl]-4-hydroxy-2,6-dimethylpyridine-3-carboxamide], the IC50 in assay [1] was below 0.1 µM; in assay [2], 0.1 to 0.3 µM; in assay [3] it was 0.1 to 0.3 µM; in assay [4], below 0.1 µM.
As for `Cc1ncc(C(=O)Nc2ccc(Oc3ccnc4cc(C(C)C)cnc34)c(F)c2)c(O)c1-c1ccc(F)cc1` [Compound 596, 5-(4-Fluorophenyl)-N-[3-fluoro-4-[(7-propan-2-yl-1,5-naphthyridin-4-yl)oxy]phenyl]-4-hydroxy-6-methylpyridine-3-carboxamide], the concentration for half-maximal inhibition (IC50) in assay [1] was below 0.1 µM; in assay [2], above 0.3 µM; in assay [3] it was below 0.1 µM; in assay [4], below 0.1 µM.
In the case of `Cc1nc(C)c(-c2ccc(F)cc2)c(O)c1C(=O)Nc1ccc(Oc2ccnc3cc(C(C)C)cnc23)cc1` [Compound 598, 5-(4-Fluorophenyl)-4-hydroxy-2,6-dimethyl-N-[4-[(7-propan-2-yl-1,5-naphthyridin-4-yl)oxy]phenyl]pyridine-3-carboxamide], the IC50 in assay [1] is below 0.1 µM; in assay [2], 0.1 to 0.3 µM; in assay [3] it was below 0.1 µM; in assay [4] it was below 0.1 µM.
On to `Cc1ncc(C(=O)Nc2ccc(Oc3ccnc4cc(-c5cnn(C(F)F)c5)cnc34)c(F)c2)c(O)c1-c1ccc(F)cc1` [Compound 610, N-[4-[[7-[1-(Difluoromethyl)pyrazol-4-yl]-1,5-naphthyridin-4-yl]oxy]-3-fluorophenyl]-5-(4-fluorophenyl)-4-hydroxy-6-methylpyridine-3-carboxamide hydrochloride], for which the IC50 is below 0.1 µM in assay [1], 0.1 to 0.3 µM in assay [2], below 0.1 µM in assay [3] and below 0.1 µM in assay [4].
With `Cc1ncc(C(=O)Nc2ccc(Oc3ccnc4cc(-c5cnn(C(F)F)c5)cnc34)cc2)c(O)c1-c1ccc(F)cc1` [Compound 611, N-[4-[[7-[1-(Difluoromethyl)pyrazol-4-yl]-1,5-naphthyridin-4-yl]oxy]phenyl]-5-(4-fluorophenyl)-4-hydroxy-6-methylpyridine-3-carboxamide], the IC50 in assay [1], in assay [2], in assay [3] and in assay [4] was below 0.1 µM each time.
For the compound `Cc1nc2c(Oc3ccc(NC(=O)c4cn(C(C)C)c(C)c(-c5ccc(F)cc5)c4=O)cc3)ccnc2cc1-c1cnn(C(F)F)c1` [Compound 612, N-[4-[[7-[1-(Difluoromethyl)pyrazol-4-yl]-6-methyl-1,5-naphthyridin-4-yl]oxy]phenyl]-5-(4-fluorophenyl)-6-methyl-4-oxo-1-propan-2-ylpyridine-3-carboxamide hydrochloride], the IC50 in assay [1] is below 0.1 µM; in assay [2], above 0.3 µM; in assay [3], below 0.1 µM; in assay [4] it was below 0.1 µM.
Take `Cc1nc2c(Oc3ccc(NC(=O)c4cn(C(C)C)c(C)c(-c5ccc(F)cc5)c4=O)cc3)ccnc2cc1-c1cccnc1` [Compound 613, 5-(4-Fluorophenyl)-6-methyl-N-[4-[(6-methyl-7-pyridin-3-yl-1,5-naphthyridin-4-yl)oxy]phenyl]-4-oxo-1-propan-2-ylpyridine-3-carboxamide hydrochloride]: the IC50 was below 0.1 µM in assay [1], above 0.3 µM in assay [2], below 0.1 µM in assay [3] and below 0.1 µM in assay [4].
For `Cc1nc2c(Oc3ccc(NC(=O)c4cn(C(C)C)c(C)c(-c5ccc(F)cc5)c4=O)cc3F)ccnc2cc1-c1cnn(C(F)F)c1` [Compound 614, N-[4-[[7-[1-(Difluoromethyl)pyrazol-4-yl]-6-methyl-1,5-naphthyridin-4-yl]oxy]-3-fluorophenyl]-5-(4-fluorophenyl)-6-methyl-4-oxo-1-propan-2-ylpyridine-3-carboxamide hydrochloride], the IC50 in assay [1] was below 0.1 µM; in assay [2], above 0.3 µM; in assay [3] it was below 0.1 µM; in assay [4], below 0.1 µM.
For `Cc1nc2c(Oc3ccc(NC(=O)c4cnc(C)c(-c5ccc(F)cc5)c4O)cc3F)ccnc2cc1-c1cnn(C(F)F)c1` [Compound 615, N-[4-[[7-[1-(Difluoromethyl)pyrazol-4-yl]-6-methyl-1,5-naphthyridin-4-yl]oxy]-3-fluorophenyl]-5-(4-fluorophenyl)-4-hydroxy-6-methylpyridine-3-carboxamide hydrochloride], the IC50 in assay [1], in assay [2], in assay [3] and in assay [4] was below 0.1 µM throughout.

For orientation: IC50 means the point on the concentration scale where inhibition reaches its midpoint.
